According to US11512085B2, “Heteroaryl compound having drug activity” (SHANGHAI DUDE MEDICAL TECHNOLOGY CO., LTD, priority 2017, dated 2022):

How the values were obtained:
Btk = Btk (Homo sapiens, UniProt Q06187); assay: Determination of Btk enzyme inhibitory activity; type: biochemical; conditions: 2 nM BTK
Protocol: Determination of Btk Enzyme Inhibitory Activity
Buffer solution: 50 mM Hepes pH 7.0, 0.1 mM Orthovanadate, 5 mM MgCl2, 0.01% of BSA;
1 mM TK-peptide, […], 50 nM SEB;
Pre-incubation for 15 minutes;
Reaction at 23° C. for 90 minutes;
Color Development Reaction:
Developing buffer solution: 50 mM Hepes pH8.0, 0.8 M KF, 20 mM EDTA, 0.01% BSA;
Reaction at 23° C. for 60 minutes;

T cells = assay: T cell activation (CD3/CD28 dynabeads, CD69 staining); type: cell-based, Human; conditions: concentration of 10 uM
Protocol: Biological Embodiment 3: Influences of In-Vitro Test Compounds on PBMC/B/T Cell Activation
4.3 Isolation of B Cells and T Cells
Cell Isolation Programs Shall Refer to […] Kits
4.4.3 Activation of T Cells
The co-culture system is as follows:
Antibody Staining and Data Analysis
Antibody staining was performed within 24 hours […] according to a standard method.
4.5.2 Activation of T Cells
FITC Mouse Anti-Human CD4
PerCP-Cy™5.5 Mouse Anti-Human CD8
LIVE/DEAD Fixable Violet Dead Cell Stain Kit

SD rats = assay: Single dose toxicity test in SD rats; type: in vivo
Protocol: Biological Embodiment 6: Single Dose Toxicity Test
During the experiment, all the animals were subjected to detailed clinical observation once (2 hours after drug administration) on the Day 1 and once every day on Day 2-14; the animals were weighed on the day of animal grouping, on the day of drug administration (before drug administration), Day 4, 7, 10 and 13 after drug administration and on the day of dissection, and weights were recorded; food consumption per cage was weighed within 24 hours on Day 2, 6, 9 and 13 in the experiment and recorded; and all live animals were subjected to gross anatomy examination on Day 15.
1. Preparation of Test and Control Products
a solvent control group: 30 ml of solvents (0.5% MC (methylcellulose), 0.4% of cremophor EL and 0.1% of sodium lauryl sulfate) were sucked into a suitable container, the pH value was measured as 7, and a colorless clarified solution was obtained.
(§1) Compound 6 (400 mg/kg): 1507.1 mg of the compound 6 was weighed into a suitable container, solvents (0.5% MC (methylcellulose), 0.4% cremophor EL and 0.1% sodium lauryl sulfate) were added into the container to reach a constant volume of 30 ml, ultrasonic treatment was performed for 20 minutes, stirring was performed for 15 minutes, a mixing instrument was used for 5 minutes, the pH value was measured as 7, and white suspension was obtained.
as §1, with “(1000” for “(400”, “3765.5” for “1507.1”, “25” for “20”, “21” for “15”, “obtained. […]” for “obtained.”

hERG channel = hERG channel (Homo sapiens, UniProt Q12809); assay: hERG current blocking test (whole-cell patch clamp)
[1] = Rat liver microsome stability test; type: in vitro ADME
Protocol: (§2) Preparation of Buffer Solution:
(§3) 1. 100 mM potassium phosphate buffer solution, pH of 7.4
(§4) Preparation of Test Compound Solution:
(§5) 1. A test compound solution (10 mM, 5 μL) was diluted with a methanol solution (495 μL), and a 100 μM solution was prepared;
(§6) 2. Preparation of a working solution: the above solution (50 μL) was diluted with the potassium phosphate buffer solution (450 μL, 100 mM) so as to obtain diluents (10 μM).
(§7) NADPH Regeneration System (Final Concentration 1 Unit/mL of Isocitrate Dehydrogenase):
(§8) 1. beta-NADP, supplier: sigma Cat. No. N0505
(§9) 3. isocitrate dehydrogenase, supplier: sigma Cat. No. 12002
(§10) Cold acetonitrile containing 100 ng/mL of tolbutamide and 100 ng/mL of labetalol serves as an internal standard
(§11) 1. a 10 μL/well of working solution was added into plates (T0, T5, T10, T20, T30, T60, NCF60) beyond the blank;
(§12) 2. a 80 μL/well of microsome solution was added, and incubation was performed at 37° C. for 10 min;
(§13) 3. a 10 μL of 100 mM phosphate buffer solution was added into each well of an NCF60 plate, the plate was placed in a warm bath at 37° C., and timing started;
(§14) 4. a 10 μL/well of NADPH regeneration system was added after preheating, and a reaction started;
(§15) 5. incubation was performed at 37° C., and timing started
(§16) 6. a 300 μL/well of stop solution was added (4° C., containing 100 ng/mL of tolbutamide and 100 ng/mL of labetalol) to end the reaction;
(§17) 7. the plate was shaken for 10 min;
(§18) 8. centrifugation was performed at 4° C. at a rotation speed of 4000 rpm; and
(§19) 9. sample LC/MS/MS detection was performed.
(§20) Data Analysis Use Equation of First Order Kinetics to Calculate t½ and Clint(Mic): […]
(§21) equation of first order kinetics: […]

[2] = Human liver microsome stability test; type: in vitro ADME
Protocol: as §2, §3, §4, §5, §6, §7, §8, §9, §10, §11, §12, §13, §14, §15, §16, §17, §18, §19, §20, §21

Btk, sequence (Q06187 whole entry): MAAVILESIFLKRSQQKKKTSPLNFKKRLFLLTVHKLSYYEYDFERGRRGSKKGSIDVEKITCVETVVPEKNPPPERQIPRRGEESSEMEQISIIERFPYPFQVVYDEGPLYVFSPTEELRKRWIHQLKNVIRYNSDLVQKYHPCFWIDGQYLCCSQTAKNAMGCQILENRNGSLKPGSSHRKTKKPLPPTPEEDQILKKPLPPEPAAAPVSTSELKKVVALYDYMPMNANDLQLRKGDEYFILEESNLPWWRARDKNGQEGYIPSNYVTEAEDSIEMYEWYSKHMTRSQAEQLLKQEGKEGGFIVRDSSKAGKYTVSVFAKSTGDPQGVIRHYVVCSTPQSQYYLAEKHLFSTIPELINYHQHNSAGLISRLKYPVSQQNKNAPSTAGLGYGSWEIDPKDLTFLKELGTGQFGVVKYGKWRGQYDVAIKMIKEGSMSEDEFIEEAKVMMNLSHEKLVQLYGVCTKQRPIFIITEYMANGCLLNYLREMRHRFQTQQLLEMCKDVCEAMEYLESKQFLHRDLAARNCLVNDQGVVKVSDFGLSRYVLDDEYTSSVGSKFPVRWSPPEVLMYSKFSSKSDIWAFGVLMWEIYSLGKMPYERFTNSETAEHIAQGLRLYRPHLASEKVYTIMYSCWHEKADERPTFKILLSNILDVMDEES
hERG channel, sequence (Q12809 whole entry): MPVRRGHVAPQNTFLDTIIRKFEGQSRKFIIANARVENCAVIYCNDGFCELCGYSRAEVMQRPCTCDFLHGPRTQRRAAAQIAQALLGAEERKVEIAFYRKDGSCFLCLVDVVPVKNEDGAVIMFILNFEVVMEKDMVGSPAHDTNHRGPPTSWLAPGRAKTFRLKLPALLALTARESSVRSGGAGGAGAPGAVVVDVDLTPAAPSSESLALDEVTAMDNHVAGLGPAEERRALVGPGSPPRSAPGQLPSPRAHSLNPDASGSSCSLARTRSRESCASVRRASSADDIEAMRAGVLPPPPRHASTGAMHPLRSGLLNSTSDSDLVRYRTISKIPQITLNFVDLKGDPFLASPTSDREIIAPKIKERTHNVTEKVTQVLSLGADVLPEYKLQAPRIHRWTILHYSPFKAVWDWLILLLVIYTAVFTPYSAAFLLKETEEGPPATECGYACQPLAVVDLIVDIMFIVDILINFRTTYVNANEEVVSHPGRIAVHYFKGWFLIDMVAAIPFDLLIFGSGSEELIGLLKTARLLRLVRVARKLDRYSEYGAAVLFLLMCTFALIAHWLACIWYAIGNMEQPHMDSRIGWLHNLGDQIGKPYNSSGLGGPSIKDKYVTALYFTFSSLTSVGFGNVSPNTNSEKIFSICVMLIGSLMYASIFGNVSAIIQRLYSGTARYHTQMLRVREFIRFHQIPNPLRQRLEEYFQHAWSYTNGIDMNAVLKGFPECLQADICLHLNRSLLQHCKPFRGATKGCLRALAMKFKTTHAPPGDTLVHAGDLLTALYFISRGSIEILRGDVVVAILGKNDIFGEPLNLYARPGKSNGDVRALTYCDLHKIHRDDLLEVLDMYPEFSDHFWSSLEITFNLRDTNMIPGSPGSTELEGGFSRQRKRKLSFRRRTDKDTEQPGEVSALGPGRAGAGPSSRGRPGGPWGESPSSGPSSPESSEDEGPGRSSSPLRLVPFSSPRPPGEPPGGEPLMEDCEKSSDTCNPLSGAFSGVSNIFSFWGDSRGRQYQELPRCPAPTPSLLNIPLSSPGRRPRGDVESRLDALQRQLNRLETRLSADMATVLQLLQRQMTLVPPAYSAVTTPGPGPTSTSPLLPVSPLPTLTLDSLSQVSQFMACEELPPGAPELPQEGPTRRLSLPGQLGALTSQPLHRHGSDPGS

## C=CC(=O)NN1CCCC(n2nc(-c3ccc(Oc4ccccc4)cc3)c3c(N)ncnc32)C1 (stereo not shown) [Embodiment 6, N-(3-(4-amino-3-(4-phenoxyphenyl)-1H-pyrazolo[3,4-D]pyrimidine-1-yl)-1-piperidyl)-acrylamide]
Btk
  IC50: 0.27 nM
T cells
  T cell activity inhibition effect: T cell activity inhibition effect
SD rats; SD rats, oral, once, 0, 400, 1000, 2000 mg/kg
  Maximum tolerance dosage: 2000 mg/kg
SD rats; rat, in vivo
  Gross anatomy: no abnormality
  Results (single dose toxicity): No animal died; all tissues
hERG channel
  IC50: 8.06 µM
[1]; RLM 0.5, 60 min, no co-factor
  Remaining (*NCF = 60 min): 105.4%
[1]; RLM 0.5, 60 min with NADPH regenerating system
  Remaining (T = 60 min): 1.1%
[1]; rat, liver microsomes, pH 7.4, RLM 0.5 (0.5 mg protein/mL)
  half-life at 1 µM: 8.9 min
[1]; rat, liver microsomes, pH 7.4, RLM 0.5, read-out: CLint(mic)
  microsomal CLint at 1 µM: 155 µL/min/mg
[1]; rat, liver microsomes, pH 7.4, RLM 0.5, scaled from CLint(mic)
  CLint scaled at 1 µM: 280 mL/min/kg
[2]; HLM 0.5, 60 min, no co-factor
  Remaining (*NCF = 60 min): 105.9%
[2]; HLM 0.5, 60 min with NADPH regenerating system
  Remaining (T = 60 min): 0.2%
[2]; human, liver microsomes, pH 7.4, HLM 0.5 (0.5 mg protein/mL)
  half-life at 1 µM: 4.3 min
[2]; human, liver microsomes, pH 7.4, HLM 0.5, read-out: CLint(mic)
  microsomal CLint at 1 µM: 325 µL/min/mg
[2]; human, liver microsomes, pH 7.4, HLM 0.5, scaled from CLint(mic)
  CLint scaled at 1 µM: 292 mL/min/kg
